# pIC50: −log10 of the molar value.
# Tested on: 843126-344-R-J1-PDC complex spheroid viability
# Test: Anticancer human tumor 843126-344-R-J1-PDC patient-derived melanoma cell line growth inhibition [POLQ]
# Conditions: for pIC50: curve of first compound; for viability, T/C: stronger effect = lower value
# Summary of the method: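 Three-cell-type spheroids modelling solid tumor plus stroma served as the readout system; POL inhibitors were tested individually and in combination, concentration ranges set by clinical Cmax where known.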
# [1] = second compound 0.0316 µM, first compound 0.0316 µM
# [2] = second compound 0.0316 µM, first compound 0.1 µM
# [3] = second compound 0.0316 µM, first compound 0.316 µM
# [4] = second compound 0.0316 µM, first compound 1 µM
# [5] = second compound 0.0316 µM, first compound 3.16 µM
# [6] = second compound 0.0316 µM, first compound 10 µM
# [7] = second compound 0.1 µM, first compound 0.0316 µM
# [8] = second compound 0.1 µM, first compound 0.1 µM
# [9] = second compound 0.1 µM, first compound 0.316 µM
# [10] = second compound 0.1 µM, first compound 1 µM
# [11] = second compound 0.1 µM, first compound 3.16 µM
# [12] = second compound 0.1 µM, first compound 10 µM
# [13] = second compound 0.316 µM, first compound 0.0316 µM
# [14] = second compound 0.316 µM, first compound 0.1 µM
# [15] = second compound 0.316 µM, first compound 0.316 µM
# [16] = second compound 0.316 µM, first compound 1 µM
# [17] = second compound 0.316 µM, first compound 3.16 µM
# [18] = second compound 0.316 µM, first compound 10 µM
# [19] = second compound 1 µM, first compound 0.0316 µM
# [20] = second compound 1 µM, first compound 0.1 µM
# [21] = second compound 1 µM, first compound 0.316 µM
# [22] = second compound 1 µM, first compound 1 µM
# [23] = second compound 1 µM, first compound 3.16 µM
# [24] = second compound 1 µM, first compound 10 µM
# [25] = second compound 3.16 µM, first compound 0.0316 µM
# [26] = second compound 3.16 µM, first compound 0.1 µM
# [27] = second compound 3.16 µM, first compound 0.316 µM
# [28] = second compound 3.16 µM, first compound 1 µM
# [29] = second compound 3.16 µM, first compound 3.16 µM
# [30] = second compound 3.16 µM, first compound 10 µM
# [31] = second compound 10 µM, first compound 0.0316 µM
# [32] = second compound 10 µM, first compound 0.1 µM
# [33] = second compound 10 µM, first compound 0.316 µM
# [34] = second compound 10 µM, first compound 1 µM
# [35] = second compound 10 µM, first compound 3.16 µM
# [36] = second compound 10 µM, first compound 10 µM
# 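For viability, T/C in this document: spheroids exposed to drugs for seven days before readout.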
smiles,measurement,setting,value
O=C(c1cc(Cc2n[nH]c(=O)c3ccccc23)ccc1F)N1CCN(C(=O)C2CC2)CC1 + Cc1cccc(N(C)C(=O)C2C(O)CCN2c2nc(C)cc(C(F)(F)F)c2C#N)c1,pIC50,second compound 0.0316 µM,< 5.00
same,pIC50,second compound 0.1 µM,< 5.00
same,pIC50,second compound 0.316 µM,< 5.00
same,pIC50,second compound 1 µM,< 5.00
same,pIC50,second compound 3.16 µM,< 5.00
same,pIC50,second compound 10 µM,< 5.00
same,"viability, T/C",[1],116%
same,"viability, T/C",[2],99.2%
same,"viability, T/C",[3],84.3%
same,"viability, T/C",[4],82.3%
same,"viability, T/C",[5],91.9%
same,"viability, T/C",[6],74.2%
same,"viability, T/C",[7],110%
same,"viability, T/C",[8],98.7%
same,"viability, T/C",[9],92.7%
same,"viability, T/C",[10],90.9%
same,"viability, T/C",[11],93.7%
same,"viability, T/C",[12],67.1%
same,"viability, T/C",[13],95.7%
same,"viability, T/C",[14],78.8%
same,"viability, T/C",[15],89.4%
same,"viability, T/C",[16],91.5%
same,"viability, T/C",[17],82%
same,"viability, T/C",[18],75.7%
same,"viability, T/C",[19],85.4%
same,"viability, T/C",[20],97.8%
same,"viability, T/C",[21],96.9%
same,"viability, T/C",[22],97.8%
same,"viability, T/C",[23],84.1%
same,"viability, T/C",[24],77.6%
same,"viability, T/C",[25],91.5%
same,"viability, T/C",[26],83.3%
same,"viability, T/C",[27],88.8%
same,"viability, T/C",[28],89.6%
same,"viability, T/C",[29],84.2%
same,"viability, T/C",[30],71.2%
same,"viability, T/C",[31],83.8%
same,"viability, T/C",[32],102%
same,"viability, T/C",[33],85.8%
same,"viability, T/C",[34],92.1%
same,"viability, T/C",[35],103%
same,"viability, T/C",[36],78.8%
CC(C)n1c(=O)n(C)c2cnc3cc(F)c(-c4ccc(OCCCN5CCCCC5)nc4)cc3c21 + COC1C(OC(N)=O)C(O)C(Oc2ccc3c(O)c(NC(=O)c4ccc(O)c(CC=C(C)C)c4)c(=O)oc3c2C)OC1(C)C,pIC50,second compound 0.0316 µM,< 5.00
same,pIC50,second compound 0.1 µM,< 5.00
same,pIC50,second compound 0.316 µM,< 5.00
same,pIC50,second compound 1 µM,< 5.00
same,pIC50,second compound 3.16 µM,< 5.00
same,pIC50,second compound 10 µM,< 5.00
same,"viability, T/C",[1],79.6%
same,"viability, T/C",[2],85.9%
same,"viability, T/C",[3],94.7%
same,"viability, T/C",[4],86.4%
same,"viability, T/C",[5],77.2%
same,"viability, T/C",[6],70.5%
same,"viability, T/C",[7],81.1%
same,"viability, T/C",[8],69.3%
same,"viability, T/C",[9],85%
same,"viability, T/C",[10],94.8%
same,"viability, T/C",[11],74.8%
same,"viability, T/C",[12],76.1%
same,"viability, T/C",[13],90.8%
same,"viability, T/C",[14],76.2%
same,"viability, T/C",[15],79.8%
same,"viability, T/C",[16],91.1%
same,"viability, T/C",[17],70.3%
same,"viability, T/C",[18],67.8%
same,"viability, T/C",[19],95.5%
same,"viability, T/C",[20],82.4%
same,"viability, T/C",[21],76.3%
same,"viability, T/C",[22],78%
same,"viability, T/C",[23],87.6%
same,"viability, T/C",[24],69.6%
same,"viability, T/C",[25],68.8%
same,"viability, T/C",[26],82.8%
same,"viability, T/C",[27],80.4%
same,"viability, T/C",[28],101%
same,"viability, T/C",[29],77.3%
same,"viability, T/C",[30],66.4%
same,"viability, T/C",[31],79%
same,"viability, T/C",[32],80.4%
same,"viability, T/C",[33],81.7%
same,"viability, T/C",[34],79.8%
same,"viability, T/C",[35],75.8%
same,"viability, T/C",[36],68.3%

# From PubChem BioAssay AID1963837 (Molecular Pharmacology Branch, DTP, NCI, 2024)
